pKd: −log10 of the molar value.
Experiment: The compound was evaluated for binding affinity towards monoclonal antibody NC10.14 using competitive radioimmunoassay.

pKd: 7.74
SMILES: N#Cc1ccc(N/C(=N\CC(=O)O)NC(c2ccccc2)c2ccccc2)cc1
